What was measured:
velvetleaf [1] = experiment: Test B pre-/postemergence herbicide test; assay type: in vivo, Abutilon theophrasti; details: for Plant response rating, Velvetleaf: preemergence; for Velvetleaf plant response rating: postemergence, visual rating, scale 0 (no effect) to 100 (complete control)
Procedure, shortened: (§1)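 Pre: seeds sown, then sprayed. Post: 1–4-leaf plants (2–18 cm) sprayed at the same time. Paddy: flooded, treated at 2-leaf stage. Formulation: non-phytotoxic solvent with surfactant. Greenhouse 13–15 days; visual 0–100 score relative to controls.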

Surinam grass = experiment: Test B pre-/postemergence herbicide test; assay type: in vivo, Urochloa decumbens; details: for Plant response rating, Surinam Grass: preemergence; for Surinam Grass plant response rating: postemergence, visual rating, scale 0 (no effect) to 100 (complete control)
Procedure, shortened: as §1

barnyardgrass [2] = experiment: Test B flooded paddy test; assay type: in vivo, Echinochloa crus-galli; details: 1000 g ai/ha, visual rating, scale 0 to 100 (0 no effect, 100 complete control), 13 to 15 days
Procedure, shortened: (§2)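 Read-out: visual comparison with controls, scored 0 to 100, where 100 means complete control and 0 no effect. Formulated chemicals were applied postemergence to plants 2–18 cm tall (1- to 4-leaf), or to flooded-paddy plants at the 2-leaf stage, then held 13 to 15 days under glass.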

redroot pigweed = experiment: Test A pre-/postemergence herbicide test; assay type: in vivo, Amaranthus retroflexus
Procedure, shortened: (§3)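 Sandy loam soil given preemergence directed spray; plants at 2 to 10 cm, one- to two-leaf stage, sprayed to runoff postemergence, compounds in non-phytotoxic solvent with surfactant. Injury rated visually versus untreated controls after about ten greenhouse days, 0 (no effect) to 100 (complete control); dash means not tested.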

large crabgrass [3] = experiment: Test B pre-/postemergence herbicide test; assay type: in vivo, Digitaria sanguinalis; details: for Plant response rating, Crabgrass, Large: preemergence; for Crabgrass, Large plant response rating: postemergence, visual rating, scale 0 (no effect) to 100 (complete control)
Procedure, shortened: as §1

morningglory [4] = experiment: Test B pre-/postemergence herbicide test; assay type: in vivo, Ipomoea coccinea; details: for Plant response rating, Morningglory: preemergence; for Morningglory plant response rating: postemergence, visual rating, scale 0 (no effect) to 100 (complete control)
Procedure, shortened: as §1

giant foxtail [5] = experiment: Test A pre-/postemergence herbicide test; assay type: in vivo, Setaria faberi
Procedure, shortened: as §3

ducksalad = experiment: Test B flooded paddy test; assay type: in vivo, Heteranthera limosa; details: 1000 g ai/ha, visual rating, scale 0 to 100 (0 no effect, 100 complete control), 13 to 15 days
Procedure, shortened: as §2

large crabgrass [6] = experiment: Test A pre-/postemergence herbicide test; assay type: in vivo, Digitaria sanguinalis
Procedure, shortened: as §3

blackgrass = experiment: Test B postemergence herbicide test; assay type: in vivo, Alopecurus myosuroides; details: postemergence, visual rating, scale 0 (no effect) to 100 (complete control)
Procedure, shortened: as §2

[7] = tested on: small flower umbrella sedge; experiment: Test B flooded paddy test; assay type: in vivo, Cyperus difformis; details: 1000 g ai/ha, visual rating, scale 0 to 100 (0 no effect, 100 complete control), 13 to 15 days
Procedure, shortened: as §2

lambsquarters = experiment: Test B pre-/postemergence herbicide test; assay type: in vivo, Chenopodium album; details: for Plant response rating, Lambsquarters: preemergence; for Lambsquarters plant response rating: postemergence, visual rating, scale 0 (no effect) to 100 (complete control)
Procedure, shortened: as §1

pigweed = experiment: Test B pre-/postemergence herbicide test; assay type: in vivo, Amaranthus retroflexus; details: for Plant response rating, Pigweed: preemergence; for Pigweed plant response rating: postemergence, visual rating, scale 0 (no effect) to 100 (complete control)
Procedure, shortened: as §1

rice [8] = experiment: Test B flooded paddy test; assay type: in vivo, Oryza sativa; details: 1000 g ai/ha, visual rating, scale 0 to 100 (0 no effect, 100 complete control), 13 to 15 days
Procedure, shortened: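 Plants grow to 1- to 4-leaf stage (2–18 cm) for postemergence spraying, or to 2-leaf stage for the paddy test. Formulated compound is applied. Greenhouse holding lasts 13–15 days. Response is scored visually relative to controls, 0 no effect to 100 complete control; a dash means no result.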

cocklebur = experiment: Test B pre-/postemergence herbicide test; assay type: in vivo, Xanthium strumarium; details: for Plant response rating, Cocklebur: preemergence; for Cocklebur plant response rating: postemergence, visual rating, scale 0 (no effect) to 100 (complete control)
Procedure, shortened: as §1

wild oat = experiment: Test B postemergence herbicide test; assay type: in vivo, Avena fatua; details: postemergence, visual rating, scale 0 (no effect) to 100 (complete control)
Procedure, shortened: (§4)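 Scale 0–100: zero equals no visible effect, 100 complete control, judged by eye relative to controls. Timing: 13 to 15 days in greenhouse post-treatment. Growth stage at spraying: two leaves (paddy) or one to four leaves, 2–18 cm (postemergence).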

velvetleaf [9] = experiment: Test A pre-/postemergence herbicide test; assay type: in vivo, Abutilon theophrasti
Procedure, shortened: as §3

giant foxtail [10] = experiment: Test B pre-/postemergence herbicide test; assay type: in vivo, Setaria faberi; details: for Plant response rating, Foxtail, Giant: preemergence; for Foxtail, Giant plant response rating: postemergence, visual rating, scale 0 (no effect) to 100 (complete control)
Procedure, shortened: as §1

barnyardgrass [11] = experiment: Test A pre-/postemergence herbicide test; assay type: in vivo, Echinochloa crus-galli
Procedure, shortened: as §3

barnyardgrass [12] = experiment: Test B pre-/postemergence herbicide test; assay type: in vivo, Echinochloa crus-galli; details: for Plant response rating, Barnyardgrass: preemergence; for Barnyardgrass plant response rating: postemergence, visual rating, scale 0 (no effect) to 100 (complete control)
Procedure, shortened: as §1

wheat = experiment: Test B postemergence herbicide test; assay type: in vivo, Triticum aestivum; set-up: key to Wheat plant response rating: 0 = no effect, 100 = complete control; details: postemergence, visual rating, scale 0 (no effect) to 100 (complete control)
Procedure, shortened: as §4

rice [13] = experiment: Test B pre-/postemergence herbicide test; assay type: in vivo, Oryza sativa; details: preemergence, 125 g ai/ha; 0 to 100 scale, 0 is no effect, 100 is complete control
Procedure, shortened: as §1

corn = experiment: Test B pre-/postemergence herbicide test; assay type: in vivo, Zea mays; details: for Plant response rating, Corn: preemergence; for Corn plant response rating: postemergence, visual rating, scale 0 (no effect) to 100 (complete control)
Procedure, shortened: as §1

morningglory [14] = experiment: Test A pre-/postemergence herbicide test; assay type: in vivo, Ipomoea spp.
Procedure, shortened: as §3

[15] = 500 g ai/ha, visual rating 0-100, 0 no effect, 100 complete control
[16] = 125 g ai/ha, 0 to 100 scale, 0 is no effect, 100 is complete control
[17] = Postemergence, 500 g ai/ha, 0 to 100 scale, 0 no effect, 100 complete control
[18] = Postemergence, 2000 g ai/ha, 0 to 100 scale, 0 no effect, 100 complete control
[19] = Preemergence, 2000 g ai/ha, visual rating, 0 to 100 scale (0 no effect, 100 complete control)
[20] = preemergence, 500 g ai/ha, visual injury, 0 to 100 scale (0 no effect, 100 complete control)
[21] = Preemergence, 500 g ai/ha, visual rating, 0 to 100 scale (0 no effect, 100 complete control)

CC(=O)c1cc(NC(=O)c2cc(C(C)(C)C)nn2C)ccc1F [Compound 123]
50: Ducksalad plant response rating (ducksalad) | Barnyardgrass plant response rating (barnyardgrass [11]; [19])
5: Barnyardgrass plant response rating (barnyardgrass [11]; [17]) | Barnyardgrass plant response rating (barnyardgrass [11]; [21])
10: Plant response rating, Foxtail, Giant (giant foxtail [5]; [18]) | Crabgrass, Large plant response rating (large crabgrass [6]; [17]) | Plant response rating, Crabgrass, Large (large crabgrass [6]; [18]) | Plant response rating, Velvetleaf (velvetleaf [9]; [18]) | Plant response rating, Morningglory (morningglory [14]; [18])
0: Plant response rating, Velvetleaf (velvetleaf [1]; [15]) | Velvetleaf plant response rating (velvetleaf [1]; 125 g ai/ha) | Velvetleaf plant response rating (velvetleaf [1]; 500 g ai/ha) | Plant response rating, Velvetleaf (velvetleaf [1]; [16]) | Plant response rating, Surinam Grass (Surinam grass; [15]) | Surinam Grass plant response rating (Surinam grass; 125 g ai/ha) | Surinam Grass plant response rating (Surinam grass; 500 g ai/ha) | Plant response rating, Surinam Grass (Surinam grass; [16]) | Barnyardgrass plant response rating (barnyardgrass [2]) | Pigweed plant response rating (redroot pigweed; [17]) | Pigweed plant response rating (redroot pigweed; [19]) | Pigweed plant response rating (redroot pigweed; [20]) | Plant response rating, Crabgrass, Large (large crabgrass [3]; [15]) | Crabgrass, Large plant response rating (large crabgrass [3]; 125 g ai/ha) | Crabgrass, Large plant response rating (large crabgrass [3]; 500 g ai/ha) | Plant response rating, Crabgrass, Large (large crabgrass [3]; [16]) | Plant response rating, Morningglory (morningglory [4]; [15]) | Morningglory plant response rating (morningglory [4]; 125 g ai/ha) | Morningglory plant response rating (morningglory [4]; 500 g ai/ha) | Plant response rating, Morningglory (morningglory [4]; [16]) | Foxtail, Giant plant response rating (giant foxtail [5]; [17]) | Foxtail, Giant plant response rating (giant foxtail [5]; [21]) | Foxtail, Giant plant response rating (giant foxtail [5]; [19]) | Crabgrass, Large plant response rating (large crabgrass [6]; [19]) | Blackgrass plant response rating (blackgrass; 125 g ai/ha) | Blackgrass plant response rating (blackgrass; 500 g ai/ha) | Plant response rating, Lambsquarters (lambsquarters; [15]) | Lambsquarters plant response rating (lambsquarters; 125 g ai/ha) | Lambsquarters plant response rating (lambsquarters; 500 g ai/ha) | Plant response rating, Lambsquarters (lambsquarters; [16]) | Plant response rating, Pigweed (pigweed; [15]) | Pigweed plant response rating (pigweed; 125 g ai/ha) | Pigweed plant response rating (pigweed; 500 g ai/ha) | Plant response rating, Pigweed (pigweed; [16]) | Rice plant response rating (rice [8]) | Plant response rating, Cocklebur (cocklebur; [15]) | Cocklebur plant response rating (cocklebur; 125 g ai/ha) | Cocklebur plant response rating (cocklebur; 500 g ai/ha) | Plant response rating, Cocklebur (cocklebur; [16]) | Oat, Wild plant response rating (wild oat; 125 g ai/ha) | Oat, Wild plant response rating (wild oat; 500 g ai/ha) | Velvetleaf plant response rating (velvetleaf [9]; [17]) | Velvetleaf plant response rating (velvetleaf [9]; [19]) | Velvetleaf plant response rating (velvetleaf [9]; [20]) | Plant response rating, Foxtail, Giant (giant foxtail [10]; [15]) | Foxtail, Giant plant response rating (giant foxtail [10]; 125 g ai/ha) | Foxtail, Giant plant response rating (giant foxtail [10]; 500 g ai/ha) | Plant response rating, Foxtail, Giant (giant foxtail [10]; [16]) | Plant response rating, Barnyardgrass (barnyardgrass [12]; [15]) | Barnyardgrass plant response rating (barnyardgrass [12]; 125 g ai/ha) | Barnyardgrass plant response rating (barnyardgrass [12]; 500 g ai/ha) | Plant response rating, Barnyardgrass (barnyardgrass [12]; [16]) | Wheat plant response rating (wheat; 125 g ai/ha) | Wheat plant response rating (wheat; 500 g ai/ha) | Plant response rating, Rice (rice [13]) | Plant response rating, Corn (corn; [15]) | Corn plant response rating (corn; 125 g ai/ha) | Corn plant response rating (corn; 500 g ai/ha) | Plant response rating, Corn (corn; [16]) | Morningglory plant response rating (morningglory [14]; [17]) | Morningglory plant response rating (morningglory [14]; [21]) | Morningglory plant response rating (morningglory [14]; [19])
30: Sedge, Umbrella plant response rating [7]
20: Plant response rating, Barnyardgrass (barnyardgrass [11]; [18])
15: Plant response rating, Pigweed (redroot pigweed; [18]) | Crabgrass, Large plant response rating (large crabgrass [6]; [21])

— patent US20060069132A1, “Azolecarboxamide herbicides” (priority 2004, published 2006)
